Source: patent US20230201870A1, “PLASMA COATING METHOD AND APPARATUS FOR BIOLOGICAL SURFACE MODIFICATION” (MOLECULAR PLASMA GROUP S.A., priority 2020, published 2023)
Where two headings read alike, the source gives them in different places.

Key:
Format in all cases: cell-based
[1] = tested on: Escherichia coli (gram-negative); experiment: Antibacterial activity of plasma-coated material (OECD guideline, ISO 22197/20743), gram-negative; conditions: E. coli
[2] = tested on: Staphylococcus aureus (gram-positive); experiment: Antibacterial activity of plasma-coated material (OECD guideline, ISO 22197/20743), gram-positive; conditions: S. aureus
Bacteriophage MS2 = experiment: Viral load reduction test (ASTM E2721-16, MS2 in place of Influenza A) on plasma-coated substrate
[3] = PPNW substrate (polypropylene nonwoven, 25 g/m^2)
[4] = synthetic textile substrate (Tyvek)
[5] = plasma coating from precursor on Tyvek substrate, MS2 phages, vs untreated control, LOD = limit of detection

`C=C(C)C(=O)OCCN(C)C` [DIMAEMA, 2-(N,N-dimethylamino)ethyl methacrylate] was tested. Which “% Gram-bacteria reduced” value [1, 3] did it give?
The value was greater than 99.9996%.

What about the Gram-log reduction [1, 3] of the same compound?
The Gram-log reduction was greater than 5.4 log.

And the “% Gram-bacteria reduced” value [1, 4]?
The value was 20.6%.

What about the Gram-log reduction [1, 4] of the same compound?
The Gram-log reduction was 0.1 log.

What about the “%Gram+ bacteria reduced” value [2, 3] of the same compound?
The value was greater than 99.994%.

And the “Gram+ log reduction” value [2, 3]?
The value was greater than 4.2 log.

And the “%Gram+ bacteria reduced” value [2, 4]?
Its value is greater than 99.95%.

What about the “Gram+ log reduction” value [2, 4] of the same compound?
The value was greater than 3.3 log.

Which “LOG Reduction” value (Bacteriophage MS2; [5]) does the source give for `CCCCCCCCCCCCCCCCCC[N+](C)(C)CCC[Si](OC)(OC)OC.[Cl-]` [SiQAM, Dimethyloctadecyl[3-(trimethoxysilyl)propyl] ammonium chloride solution] here?
The value was 1.56 log.

And the “% Gram-bacteria reduced” value [1, 3]?
The value was greater than 99.9996%.

And the Gram-log reduction [1, 3]?
The Gram-log reduction was greater than 5.4 log.

And the “% Gram-bacteria reduced” value [1, 4]?
The value was greater than 98.7%.

What about the Gram-log reduction [1, 4] of the same compound?
Its Gram-log reduction is greater than 1.9 log.

What about the “%Gram+ bacteria reduced” value [2, 3] of the same compound?
The value was greater than 99.994%.

What about the “Gram+ log reduction” value [2, 3] of the same compound?
Its value is greater than 4.2 log.

And the “%Gram+ bacteria reduced” value [2, 4]?
The value was greater than 99.95%.

What about the “Gram+ log reduction” value [2, 4] of the same compound?
Its value is greater than 3.3 log.

What does the source list for “Benzalkonium chloride [reference compound]”?
LOG Reduction (Bacteriophage MS2): > 3.8 (LOD) log; Gram-log reduction [1, 3]: 5.4 log; Gram-log reduction [1, 4]: 1.9 log; %Gram+ bacteria reduced [2, 3]: > 99.994%; Gram+ log reduction [2, 3]: > 4.2 log; %Gram+ bacteria reduced [2, 4]: > 99.5%; Gram+ log reduction [2, 4]: > 3.3 log

With `C=CC(=O)NCCC[N+](C)(C)C.[Cl-]` [APTAC, (3-Acrylamidopropyl)trimethylammonium chloride] as the compound, how does the “LOG Reduction” value (Bacteriophage MS2; [5]) read?
Its value is 2.1 log.

For `O=C(O)CC(O)(CC(=O)O)C(=O)O` [Citric acid], which “LOG Reduction” value (Bacteriophage MS2; [5]) is on record?
The value was > 5.0 (LOD) log.

What about the “% Gram-bacteria reduced” value [1, 3] of the same compound?
The value was greater than 99.999%.

What about the Gram-log reduction [1, 3] of the same compound?
Its Gram-log reduction is greater than 5.0 log.

And the “% Gram-bacteria reduced” value [1, 4]?
The value was 97.5%.

What about the Gram-log reduction [1, 4] of the same compound?
The Gram-log reduction was 1.6 log.

What about the “%Gram+ bacteria reduced” value [2, 3] of the same compound?
The value was greater than 99.995%.

What about the “Gram+ log reduction” value [2, 3] of the same compound?
Its value is greater than 4.3 log.

And the “%Gram+ bacteria reduced” value [2, 4]?
The value was greater than 99.98%.

What about the “Gram+ log reduction” value [2, 4] of the same compound?
The value was greater than 3.8 log.
